Laboratory results as given in PubChem BioAssay (NCI).
Where “and” joins values, the source holds several entries; their conditions need not be identical. Identical values can stand only once.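 Where inhibition never reached the appropriate level, the endpoint shown equals the highest concentration tested. Otherwise, values were interpolated linearly from a five-concentration, 48-hour dose response in 96-well plates. At the GI50, growth is halved. TGI: total growth inhibition.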

Legend:
Assay in all cases: NCI tumour cell line growth inhibition, 48 h
BT-549 breast = tested on: BT-549 breast
DU-145 prostate = tested on: DU-145 prostate
HS 578T breast = tested on: HS 578T breast
MDA-MB-231 breast = tested on: MDA-MB-231 breast
PC-3 prostate = tested on: PC-3 prostate
DLD-1 colon = tested on: DLD-1 colon
DMS 273 small cell lung = tested on: DMS 273 small cell lung
M19-MEL melanoma = tested on: M19-MEL melanoma
SNB-78 CNS = tested on: SNB-78 CNS

| SMILES | GI50 (BT-549 breast) [µM] | TGI (BT-549 breast) [µM] | GI50 (DU-145 prostate) [µM] | TGI (DU-145 prostate) [µM] | GI50 (HS 578T breast) | TGI (HS 578T breast) | GI50 (MDA-MB-231 breast) [µM] | TGI (MDA-MB-231 breast) | GI50 (PC-3 prostate) [µM] | TGI (PC-3 prostate) [µM] | TGI (DLD-1 colon) [µM] | TGI (DMS 273 small cell lung) [µM] | TGI (M19-MEL melanoma) [µM] | TGI (SNB-78 CNS) [µM] | GI50 (DLD-1 colon) [µM] | GI50 (DMS 273 small cell lung) [µM] | GI50 (M19-MEL melanoma) [µM] | GI50 (SNB-78 CNS) [µM] |
| --- | --- | --- | --- | --- | --- | --- | --- | --- | --- | --- | --- | --- | --- | --- | --- | --- | --- | --- |
| C=C1CC[C@@H]2[C@](C)(COC(C)=O)[C@H](OC(C)=O)CC[C@@]2(C)[C@@H]1CC(Sc1ccccc1)C1=CCOC1=O (some centres undefined) | 1.59 | 3.99 | 1.41 | 2.74 | 4.89 µM | 63.3 µM | 2.47 | 6.3 µM | 1.84 | 10.1 | – | – | – | – | – | – | – | – |
| O=C(OC(CNc1cc(=O)n(Cc2ccccc2)c(=O)n1Cc1ccccc1)CN1CCCC1)c1ccccc1 (centres undefined) | 0.781 | > 100 | 1.9 | > 100 | > 100 µM | > 100 µM | 75.3 | > 100 µM | > 100 | > 100 | – | – | – | – | – | – | – | – |
| S=C(Nc1ccccc1)N(/N=C/C=C/c1ccccc1)c1nnc(-c2ccccc2)c(-c2ccccc2)n1 | – | – | – | – | – | – | – | – | – | – | > 100 | > 100 | > 100 | > 100 | – | – | – | – |
| N#CC(=C1C=CC(=NO)C=C1)c1ccccc1 | 2.42 | 11.6 | 1.58 | 4.05 | 2.39 µM | 6.68 µM | 1.73 | 5.17 µM | 0.671 | 17 | – | – | – | – | – | – | – | – |
| COc1cc(C(Cc2ccccc2)NC(C)=O)oc(=O)c1 (centres undefined) | – | – | – | – | – | – | – | – | – | – | > 100 | > 100 | > 100 | – | – | – | – | – |
| O=C(Cc1ccc(/C=C/C(=O)c2ncc[nH]2)cc1)Nc1cc(F)c(F)c(F)c1 | 3.37 | 6.74 | 3.37 | 7.08 | 7.3 µM | > 25 µM | 6.45 | 21.1 µM | 3.8 | 9.12 | – | – | – | – | – | – | – | – |
| Cc1cc(I)cc(CN(C)CCCN2CCCCCCC2)c1O | 13.1 | 26.7 | 17.8 | 38 | 15.7 µM | 33.7 µM | 14.9 | 29.6 µM | 15.8 | 32.7 | – | – | – | – | – | – | – | – |
| [Cl][Hg][c]1cc(Br)cc(Br)c1 | 1.95 | 5.47 | 2.77 | 10.6 | 1.58 µM | 7.07 µM | 1.79 | 3.89 µM | 2.16 | 7.2 | – | – | – | – | – | – | – | – |
| O/N=C/C1C(OCc2ccccc2)C(OCc2ccccc2)C(OCc2ccccc2)CN1Cc1ccccc1 (centres undefined) | – | 37.1 | – | > 100 | 21.5 µM and 3.75 µM | 96.6 µM and 88.5 µM | – | 93.7 µM | – | – | – | – | – | – | – | – | – | – |
| Cn1c2ccccc2c2c3c(c4c5cc(Br)ccc5n(C)c4c21)C(=O)N(O)C3=O | – | – | – | – | 1.09 µM | > 100 µM | – | – | 0.497 | > 100 | – | – | – | – | – | – | – | – |
| CC(C)CCN1c2nc(Nc3cc(F)c(O)c(F)c3)ncc2N(C)C(=O)C1C (centres undefined) | 5.66 | > 67.7 | 6.41 | 77.5 | 3.22 µM | 32.1 µM | 5.17 | > 100 µM | – | – | – | – | – | – | – | – | – | – |
| Cc1nn(-c2ccccc2)c2nc(N3CCOCC3)nnc12 | – | – | – | – | – | – | – | – | – | – | > 100 | > 100 | > 100 | > 100 | – | – | – | – |
| O=c1c2sc(=S)n(-c3ccc(F)cc3)c2ncn1Cc1ccc(F)cc1F | > 100 | > 100 | > 100 | > 100 | 78.8 µM | > 100 µM | > 100 | > 100 µM | 80.8 | > 100 | – | – | – | – | – | – | – | – |
| NC(=Nc1c([N+](=O)[O-])cnc2ccccc12)N1CCOCC1 | – | > 100 | – | > 100 | – | > 100 µM | – | > 100 µM | – | > 100 | – | – | – | – | – | – | – | – |
| CNC(=O)N(C)N=NCCCl | – | – | – | > 100 | – | > 100 µM | – | > 100 µM | – | > 100 | > 100 | > 100 | > 100 | – | – | – | – | – |
| CCCCCCCCCCCCOC1C(C(COC2OC(C3COC(C)(C)O3)C3OC(C)(C)OC23)NC(=O)Nc2ccc(C(=O)O)cc2)OC2OC(C)(C)OC21 (centres undefined) | 1.79 | 4.59 | 3.07 | 9.79 | 3.46 µM | 13.2 µM | 1.99 | 4.98 µM | 2.6 | 7.58 | – | – | – | – | – | – | – | – |
| Cc1cc(CC(O)c2ccc(Cl)c(Cl)c2)nc(=O)[nH]1 (centres undefined) | – | – | – | – | – | – | – | – | – | – | > 100 | – | > 100 | > 100 | – | – | – | – |
| O=C1NC(=O)C(c2cnc3ccccn23)=C1c1cn2c3c(cc(F)cc13)CN(C(=O)N1CCCCC1)CC2 | 14.7 | 45 | 12.7 | 39.7 | 0.0115 µM | 60.9 µM | 11.4 | 33.1 µM | 4.17 | 41.8 | – | – | – | – | – | – | – | – |
| CCC[CH2][Sn]1([CH2]CCC)[O]N=C(c2ccccc2)C(c2ccccc2)[O]1 (centres undefined) | – | – | – | – | – | – | – | – | – | – | 3.58 | 3.05 | 3.13 | 8.01 | 1.79 | 1.59 | 1.56 | 3.07 |
| Cn1cc(CO)c2c1C(=O)C=C(N1CC1)C2=O | < 0.0128 | 0.133 | < 0.01 | 0.131 | 0.017 µM | 0.0472 µM | 2.66 | 5.96 µM | 0.0153 | 0.128 | – | – | – | – | – | – | – | – |
| Cc1nc2c(-c3cnc(N)nc3)nc(N3CCOCC3)nc2n1C(C)C | – | 2.22 | – | > 100 | – | 0.578 µM and 0.199 µM | – | > 4.14 µM and 27.1 µM | – | > 100 | – | – | – | – | – | – | – | – |
| C=C1C(=O)O[C@@H]2C[C@@H]1CC/C(C)=C/CC/C(C)=C/CC[C@@]2(C)O | 21.1 | 40.4 | 14 | 30.2 | 28.5 µM | 72.4 µM | 8.56 | 31.8 µM | 6.73 | 21.3 | – | – | – | – | – | – | – | – |
| CCCCCCNC(=O)c1cc(NCc2cc(O)ccc2O)ccc1O | 1.14 | 4.27 | 15.2 | 28.8 | 15.1 µM | > 100 µM | 2.78 | 10.4 µM | 2.47 | 12 | – | – | – | – | – | – | – | – |
| CN(C)N=Nc1ccc(NC=O)cc1 | – | > 100 | – | > 100 | – | – | – | > 100 µM | – | > 100 | – | – | – | – | – | – | – | – |
| CCOc1ccccc1C=C1c2ccccc2C(=O)c2ccccc21 | – | – | – | – | – | – | – | – | – | – | > 100 | 15.7 | > 100 | > 100 | – | – | – | – |
| COc1cc(C#CC(=O)OC/C=C/c2ccc3c(c2)OCO3)cc(OC)c1OC | – | 52.3 | – | > 100 | – | 51 µM | – | 79.4 µM | – | 72.3 | – | – | – | – | – | – | – | – |
